ChEMBL document CHEMBL1128136, “and -N-[(1-benzyl-1H-imidazol-5-yl)-alkyl]-amino acids as angiotensin II AT-1 antagonists” (Bioorg Med Chem Lett, 1995)

Tests used:
[1] = biological target: T1, Angiotensin II receptor (AT-1) type-1 (Rattus norvegicus, UniProt P29089+P25095); experiment: Compound was tested for inhibition of 125 I-Angiotensin II specific binding to rat mesenteric arteries; format: protein assay
T1 sequence (P29089 whole entry): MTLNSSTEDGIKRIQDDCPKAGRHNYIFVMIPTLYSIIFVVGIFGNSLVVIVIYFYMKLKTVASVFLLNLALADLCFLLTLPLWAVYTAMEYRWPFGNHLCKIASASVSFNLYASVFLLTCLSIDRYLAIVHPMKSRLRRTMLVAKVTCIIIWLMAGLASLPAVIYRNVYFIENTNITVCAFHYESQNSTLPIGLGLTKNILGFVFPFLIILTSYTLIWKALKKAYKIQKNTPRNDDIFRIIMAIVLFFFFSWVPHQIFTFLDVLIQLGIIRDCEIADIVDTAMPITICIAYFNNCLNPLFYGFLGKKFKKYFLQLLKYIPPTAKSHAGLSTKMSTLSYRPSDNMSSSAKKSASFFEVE
T1 sequence (P25095 whole entry): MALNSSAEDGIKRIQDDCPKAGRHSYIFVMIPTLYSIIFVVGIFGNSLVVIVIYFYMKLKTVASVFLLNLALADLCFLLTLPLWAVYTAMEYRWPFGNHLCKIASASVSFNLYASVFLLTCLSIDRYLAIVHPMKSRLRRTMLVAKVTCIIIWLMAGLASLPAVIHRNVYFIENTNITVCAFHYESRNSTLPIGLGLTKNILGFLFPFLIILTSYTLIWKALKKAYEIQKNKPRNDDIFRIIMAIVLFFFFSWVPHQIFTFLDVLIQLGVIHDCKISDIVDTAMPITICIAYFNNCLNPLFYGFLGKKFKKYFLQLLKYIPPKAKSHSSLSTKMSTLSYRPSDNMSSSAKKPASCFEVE

Oryctolagus cuniculus [2] = species: Oryctolagus cuniculus; experiment: Compound was tested for inhibition of Angiotensin II-induced vasoconstriction of rabbit aorta.; format: functional
[3] = biological target: T2, Type-1 angiotensin II receptor (Homo sapiens, UniProt P30556); experiment: Tested for inhibition of Angiotensin II specific binding to Angiotensin II receptor, type 1 in the recombinant human AT-1 receptor expressed in LhAT-1D6 cells; format: cell-based
T2 sequence (P30556 whole entry): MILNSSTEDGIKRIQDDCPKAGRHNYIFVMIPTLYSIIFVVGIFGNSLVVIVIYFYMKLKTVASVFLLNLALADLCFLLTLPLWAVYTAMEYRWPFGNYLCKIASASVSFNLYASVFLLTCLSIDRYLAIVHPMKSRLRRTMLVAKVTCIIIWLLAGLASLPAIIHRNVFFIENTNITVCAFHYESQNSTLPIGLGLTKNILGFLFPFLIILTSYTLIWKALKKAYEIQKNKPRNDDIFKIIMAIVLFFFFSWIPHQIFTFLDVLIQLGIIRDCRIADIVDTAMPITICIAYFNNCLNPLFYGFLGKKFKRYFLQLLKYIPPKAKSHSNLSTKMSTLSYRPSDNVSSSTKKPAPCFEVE

Oryctolagus cuniculus [4] = species: Oryctolagus cuniculus; experiment: Compound was tested for Non-competitive inhibition ofAngiotensin II -induced vasoconstriction of rabbit aorta.; format: functional

| Compound | IC50 [1] [nM] | IC50 [3] [nM] | Kb (Oryctolagus cuniculus [2]) [nM] | Kb (Oryctolagus cuniculus [4]) [nM] |
| --- | --- | --- | --- | --- |
| CCCCc1ncc(/C=C(\Cc2cccs2)C(=O)O)n1Cc1ccc(C(=O)O)cc1 [EPROSARTAN] | – | – | 0.21 | – |
| CCCCc1ncc(CN(CC(=O)O)Cc2cccs2)n1Cc1ccc(C(=O)O)cc1 | 169 | – | 2.4 | – |
| CCCCc1ncc(CN[C@@H](Cc2cccs2)C(=O)O)n1Cc1ccc(C(=O)O)cc1 | 673 | – | 63 | – |
| CCCCc1ncc(CNCC(=O)O)n1Cc1ccc(C(=O)O)cc1 | – | 298 | 335 | – |
| CCCCc1ncc(CN[C@H](Cc2cccs2)C(=O)O)n1Cc1ccc(C(=O)O)cc1 | 36.7 | – | 5 | – |
| CCCCc1ncc(CN(CC(=O)O)Cc2ccccc2)n1Cc1ccc(C(=O)O)cc1 | 31 | – | 11 | – |

Second part, led by results:

| IC50 [1] [nM] | IC50 [3] [nM] | Compound | Kb (Oryctolagus cuniculus [2]) [nM] | Kb (Oryctolagus cuniculus [4]) [nM] |
| --- | --- | --- | --- | --- |
| 517 | – | CCCCc1ncc(CN[C@@H](Cc2ccccc2)C(=O)O)n1Cc1ccc(C(=O)O)cc1 | 125 | – |
| – | 48.3 | CCCCc1ncc(CN[C@@H](Cc2c[nH]c3ccccc23)C(=O)O)n1Cc1ccc(C(=O)O)cc1 | 885 | – |
| 28 | – | CCCCc1ncc(CN[C@@H](C(=O)O)C(C)c2ccccc2)n1Cc1ccc(C(=O)O)cc1 (stereo partly drawn) | – | 0.6 |
| 176 | – | CCCCc1ncc(CN[C@H](C(=O)O)C(C)c2ccccc2)n1Cc1ccc(C(=O)O)cc1 (stereo partly drawn) | 117 | – |
| 3.8 | – | CCCCc1ncc(CN[C@H](Cc2ccccc2)C(=O)O)n1Cc1ccc(C(=O)O)cc1 | 3.6 | – |
| – | 2.9 | CCCCc1ncc(CN[C@H](Cc2c[nH]c3ccccc23)C(=O)O)n1Cc1ccc(C(=O)O)cc1 | 48 | – |
